US20070149456A1, “Epithelial sodium channel inhibiting agents and uses therefor” (University of Pittsburgh, priority 2005, published 2007)
Values joined by “and” are separate entries in the source; they are usually repeats but may differ in a detail not shown here. Equal entries are not always repeated. “Also recorded” adds a separate entry of the source. Where two headings read alike, the source gives them in different places.

Biological target: T1, endogenous ENaC in mpkCCDc14 cells (Mus musculus, UniProt Q61180+Q9WU38+Q9WU39)
T1 construct: endogenous ENaC in a mouse cortical collecting duct (mpkCCDc14) cell line; endogenous in cells; host or cells: mpkCCDc14 mouse cortical collecting duct cell line
T1 sequence (Q61180 1-205): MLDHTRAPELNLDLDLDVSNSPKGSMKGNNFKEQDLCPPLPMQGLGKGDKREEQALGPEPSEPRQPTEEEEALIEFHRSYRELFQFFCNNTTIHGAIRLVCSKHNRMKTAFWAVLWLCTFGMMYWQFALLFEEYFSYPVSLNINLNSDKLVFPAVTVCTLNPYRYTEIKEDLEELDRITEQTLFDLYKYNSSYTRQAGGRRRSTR
T1 sequence (Q61180 232-699): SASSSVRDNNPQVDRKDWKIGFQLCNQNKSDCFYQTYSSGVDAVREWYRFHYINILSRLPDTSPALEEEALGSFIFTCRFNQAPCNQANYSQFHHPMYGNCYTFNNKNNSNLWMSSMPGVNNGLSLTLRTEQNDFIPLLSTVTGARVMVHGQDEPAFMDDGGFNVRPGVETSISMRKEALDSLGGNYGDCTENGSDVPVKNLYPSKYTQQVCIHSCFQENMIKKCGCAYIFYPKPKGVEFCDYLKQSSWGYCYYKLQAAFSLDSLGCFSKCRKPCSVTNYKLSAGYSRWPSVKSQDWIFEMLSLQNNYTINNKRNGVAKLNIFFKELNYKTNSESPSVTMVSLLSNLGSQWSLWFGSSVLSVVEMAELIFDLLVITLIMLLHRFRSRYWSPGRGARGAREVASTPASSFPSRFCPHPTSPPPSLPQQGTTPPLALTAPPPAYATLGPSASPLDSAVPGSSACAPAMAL
T1 sequence (Q9WU38 whole entry): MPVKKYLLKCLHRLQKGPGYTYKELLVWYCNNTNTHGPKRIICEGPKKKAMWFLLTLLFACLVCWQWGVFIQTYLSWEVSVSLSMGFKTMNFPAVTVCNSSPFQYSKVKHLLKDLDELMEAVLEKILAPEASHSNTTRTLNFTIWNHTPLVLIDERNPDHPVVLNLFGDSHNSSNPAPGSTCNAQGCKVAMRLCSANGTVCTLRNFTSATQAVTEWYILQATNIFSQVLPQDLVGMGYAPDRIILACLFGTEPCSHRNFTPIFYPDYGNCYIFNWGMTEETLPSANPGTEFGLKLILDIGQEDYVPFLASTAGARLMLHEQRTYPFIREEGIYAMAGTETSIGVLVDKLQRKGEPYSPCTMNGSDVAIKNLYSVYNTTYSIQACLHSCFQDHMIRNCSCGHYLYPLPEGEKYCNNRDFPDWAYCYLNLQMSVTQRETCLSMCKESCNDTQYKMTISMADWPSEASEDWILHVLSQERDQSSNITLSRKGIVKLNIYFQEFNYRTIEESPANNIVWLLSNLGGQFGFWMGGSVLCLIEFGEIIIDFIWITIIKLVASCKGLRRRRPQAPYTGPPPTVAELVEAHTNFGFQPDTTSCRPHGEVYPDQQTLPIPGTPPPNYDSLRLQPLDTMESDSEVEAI
T1 sequence (Q9WU39 1-143): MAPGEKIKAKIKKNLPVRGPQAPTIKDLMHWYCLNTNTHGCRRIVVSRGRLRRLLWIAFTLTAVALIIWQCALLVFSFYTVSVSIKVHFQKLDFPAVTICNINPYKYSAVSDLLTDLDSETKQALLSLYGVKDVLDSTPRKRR
T1 sequence (Q9WU39 187-655): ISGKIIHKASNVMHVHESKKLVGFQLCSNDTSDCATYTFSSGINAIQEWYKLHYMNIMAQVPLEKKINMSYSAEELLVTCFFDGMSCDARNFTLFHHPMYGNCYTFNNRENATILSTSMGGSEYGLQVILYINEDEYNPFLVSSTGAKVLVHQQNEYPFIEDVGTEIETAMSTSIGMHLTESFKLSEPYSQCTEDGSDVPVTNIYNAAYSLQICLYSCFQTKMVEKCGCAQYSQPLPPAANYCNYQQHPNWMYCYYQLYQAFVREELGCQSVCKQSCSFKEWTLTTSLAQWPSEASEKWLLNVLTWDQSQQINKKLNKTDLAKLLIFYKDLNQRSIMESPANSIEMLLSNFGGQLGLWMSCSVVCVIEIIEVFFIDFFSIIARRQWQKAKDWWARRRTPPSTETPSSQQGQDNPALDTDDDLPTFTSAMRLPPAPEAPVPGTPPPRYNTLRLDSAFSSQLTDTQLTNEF
Test: Amiloride-sensitive short circuit current in mpkCCDc14 monolayers, Ussing chamber
Assay type: cell-based
Settings: for inhibition of amiloride sensitive short circuit currents: mpkCCDc14, increasing concentrations of peptide; for Ki: mpkCCDc14 cells; for inhibition of transepithelial Na+ transport: peptide 3 μM in apical chamber; for reversibility of inhibition on washout: peptide 3 μM
Procedure: mpkCCDc14 Cell Culture—mpkCCDc14 cells were grown as previously reported (Bens, M., Vallet, V., Cluzeaud, F., Pascual-Letallec, L., Kahn, A., Rafestin-Oblin, M. E., Rossier, B. C., and Vandewalle, A. (1999), Corticosteroid-dependent sodium transport in a novel immortalized mouse collecting duct principal cell line, J. Am. Soc. Nephrol. 10, 923-934). mpkCCDc14 cells were subcultured onto permeable filter supports coated with collagen (0.4-μm pore size, 1-cm^2 surface area, Snapwell filters; Coming Inc., Acton, Mass.). Cells were kept on filters for at least 4 days in defined medium (Bens, M., Vallet, V., Cluzeaud, F., Pascual-Letallec, L., Kahn, A., Rafestin-Oblin, M. E., Rossier, B. C., and Vandewalle, A. (1999) J. Am. Soc. Nephrol. 10, 923-934 30) that was changed every second day. At least 24 h prior to the experiments, the culture medium was replaced with a minimal medium (without drugs or hormones) that contained only Dulbecco's modified Eagle's medium and Ham's F-12.
Short Circuit Current Measurements—Cell culture inserts were mounted in modified Ussing chambers (Harvard Apparatus, Holliston, Mass.), and the monolayers were continuously short-circuited with a voltage/current clamp system (Physiologic Instruments, San Diego, Calif.). A 2-mV bipolar pulse was applied periodically to measure the resistance of the monolayer. As previously described by Bridges et al. (Bridges, R. J., Newton, B. B., Pilewski, J. M., Devor, D. C., Poll, C. T., and Hall, R. L. (2001), Na+ transport in normal and CF human bronchial epithelial cells is inhibited by BAY 39-9437, Am. J. Physiol. 281, L16-L23 32, Na^+ transport in normal and CF human bronchial epithelial cells is inhibited by BAY 39-9437), the bath solution contained (in mM) 120 NaCl, 25 NaHCO3, 3.3 KH2PO4, 0.8 K2HPO4, 1.2 MgCl2, 1.2 CaCl2, and 10 glucose. The pH of this solution was 7.4 when gassed with a mixture of 95% O2-5% CO2 at 37° C.
(FIG. 6A) mpkCCDc14cells cultured on permeable membrane supports and mounted in a modified Ussing chamber were continuously short-circuited by a voltage clamp amplifier (Physiologic Instruments, San Diego, Calif.). Transepithelial resistance was monitored by applying a 4 mV bipolar pulse every 60 seconds. Where indicated, a 43 residue peptide corresponding to E144-K186 of mouse γ-ENaC (γ-peptide) was added to the apical chamber at a final concentration of 3 μM. […] Data presented as mean +/−standard error (n=8).
Vectors and Cell Culture—Wild-type, C-terminal and double epitope tagged mouse ENaC subunit cDNAs were previously described (Hughey, R. P., Mueller, G. M., Bruns, J. B., Kinlough, C. L., Poland, P. A., Harkleroad, K. L., Carattino, M. D., and Kleyman, T. R. (2003) J Biol Chem 278, 37073-37082 and Ahn, Y. J., Brooker, D. R., Kosari, F., Harte, B. J., Li, J., Mackler, S. A., and Kleyman, T. R. (1999), Cloning and functional expression of the mouse epithelial sodium channel, Am J Physiol 277, F121-129). The γ subunit mutations were generated in pcDNA3.1 (+) using a standard two-step PCR method. A cDNA clone (IMAGE #: 3600399) encoding full length mouse prostasin was obtained from Open Biosystems (Huntsville, Ala.) and sub-cloned into pcDNA3.1 (+) (Invitrogen, Carlsbad, Calif.). MDCK type 1 cells were a gift from Barry M. Gumbiner (Memorial Sloan-Kettering Cancer Center, New York) and were cultured as previously described (Lavelle, J. P., Negrete, H. O., Poland, P. A., Kinlough, C. L., Meyers, S. D., Hughey, R. P., and Zeidel, M. L. (1997), Low permeabilities of MDCK cell monolayers: a model barrier epithelium, Am J Physiol 273, F67-75). CCD (mpkCCDc14) cells were a gift from Alain Vandewalle (Institut National de la Santéet de la Recherche Médicale, Paris, France) and were cultured as previously described (Bens, M., Vallet, V., Cluzeaud, F., Pascual-Letallec, L., Kahn, A., Rafestin-Oblin, M. E., Rossier, B. C., and Vandewalle, A. (1999) J Am Soc Nephrol 10, 923-934).

Substance	increase of the IC50 for amiloride block (CCD cells, 3 μM γ-43) [%]	IC50 (mouse CCD (mpkCCDc14), nonlinear curve fitting, read-out: IC50, inhibition of short circuit currents)	inhibition of amiloride sensitive short circuit currents (listed as γ cleavage product)	inhibition of amiloride sensitive short circuit currents (listed as γ-peptide)	Ki (stated jointly for HBE and mpkCCDc14, read-out: apparent Ki, inhibition of endogenous ENaC activity) [µM]	inhibition of transepithelial Na+ transport	inhibition of transepithelial Na+ transport (listed as γ-peptide)	reversibility of inhibition on washout	reversibility of inhibition on washout (listed as γ-peptide)	Ki (stated jointly for HBE or mpkCCDc14, read-out: Ki, block of endogenous ENaC activity) [µM]
Ac-EAGSMRSTWEGTPPRFLNLIPLLVFNENEKGKARDFFTGRKRK-NH2 [γ-43]	60	2 to 3 µM and 3.2 µM	inhibited in a dose dependent manner	inhibited in a dose dependant manner	~2	rapidly inhibited; also recorded: marked inhibition	marked inhibition	reversible; also recorded: relieved by washout	reversibly inhibits; also recorded: relieved by wash out	
Ac-DLRGALPHPLQRLRTPPPPNPARSAR-NH2 [α-26]										50 to 100
